In brackets after ≈: the same amount, converted by molar mass.
System: Enterococcus faecalis ATCC 29212
Assay: MIC testing against Enterococcus faecalis ATCC 29212
Assay type: cell-based
Details: ATCC29212, read-out: MICs against Enterococcus faecalis, Activity
Experimental: Minimum Inhibitory Concentration (MIC) Testing Compounds of this invention were tested for antimicrobial activity by susceptibility testing in liquid or on solid media. MICs for compounds against each strain were determined by the broth microdilution or agar dilution method according to the guidelines of the Clinical Laboratories and Standards Institute, formerly the National Committee for Clinical Laboratory Standards (Clinical Laboratories and Standards Institute. Methods for Dilution Antimicrobial Susceptibility Tests for Bacteria That Grow Aerobically; Approved Standard—Seventh Edition. Document M7-A7. CLSI, Wayne, Pa., 2006; Clinical Laboratories and Standards Institute. Methods for Antimicrobial Susceptibility Testing of Anaerobic Bacteria; Approved Standard—Sixth Edition. Document M11-A6. CLSI, Wayne, Pa., 2004).

MIC [µg/mL] | Compound
2 to 16 (≈ 6.96 to 55.7 µM) | CCNC(=O)Nc1nc2cc(-c3cn[nH]c3)ccc2s1 [Example 21, 1-(5-(1H-pyrazol-4-yl)benzo[d]thiazol-2-yl)-3-ethylurea]
2 to 16 (≈ 5.98 to 47.8 µM) | CCNC(=O)Nc1nc2cc(-c3cnc(OC)s3)ccc2s1 [Example 22, 1-ethyl-3-(5-(2-methoxythiazol-5-yl)benzo[d]thiazol-2-yl)urea]
2 to 16 (≈ 6.24 to 49.9 µM) | CCNC(=O)Nc1nc2cc(-c3cnc(O)s3)ccc2s1 [Example 23, 1-ethyl-3-(5-(2-hydroxythiazol-5-yl)benzo[d]thiazol-2-yl)urea]
2 to 16 (≈ 5.93 to 47.4 µM) | CCNC(=O)Nc1nc2cc(-c3cnc4ccccn34)ccc2s1 [Example 24, 1-ethyl-3-(5-(imidazo[1,2-a]pyridin-3-yl)benzo[d]thiazol-2-yl)urea]
0.25 to 1 (≈ 0.739 to 2.96 µM) | CCNC(=O)Nc1nc2cc(-c3ccc4ncnn4c3)ccc2s1 [Example 25, 1-(5-([1,2,4]triazolo[1,5-a]pyridin-6-yl)benzo[d]thiazol-2-yl)-3-ethylurea]
2 to 16 (≈ 5.63 to 45 µM) | CCNC(=O)Nc1nc2cc(-c3ccc(NC(C)=O)nc3)ccc2s1 [Example 26, N-(5-(2-(3-ethylureido)benzo[d]thiazol-5-yl)pyridin-2-yl)acetamide]
2 to 16 (≈ 5.22 to 41.7 µM) | CCNC(=O)Nc1nc2cc(-c3ccc(N4CCOCC4)nc3)ccc2s1 [Example 27, 1-ethyl-3-(5-(6-morpholinopyridin-3-yl)benzo[d]thiazol-2-yl)urea]
2 to 16 (≈ 5.47 to 43.8 µM) | CCNC(=O)Nc1nc2cc(-c3cnc(-n4ccnc4)nc3)ccc2s1 [Example 28, 1-(5-(2-(1H-imidazol-1-yl)pyrimidin-5-yl)benzo[d]thiazol-2-yl)-3-ethylurea]
2 to 16 (≈ 6.36 to 50.9 µM) | CCNC(=O)Nc1nc2cc(-c3cc[nH]c(=O)c3)ccc2s1 [Example 29, 1-ethyl-3-(5-(2-oxo-1,2-dihydropyridin-4-yl)benzo[d]thiazol-2-yl)urea]
0.25 to 1 (≈ 0.657 to 2.63 µM) | CCNC(=O)Nc1nc2cc(-c3ccc(-c4nnn(C)n4)nc3)ccc2s1 [Example 30, 1-ethyl-3-(5-(6-(2-methyl-2H-tetrazol-5-yl)pyridin-3-yl)benzo[d]thiazol-2-yl)urea]
0.25 to 1 (≈ 0.647 to 2.59 µM) | CCNC(=O)Nc1nc2cc(-c3cc(C)n(CCOC)c(=O)c3)ccc2s1 [Example 31, 1-ethyl-3-(5-(1-(2-methoxyethyl)-6-methyl-2-oxo-1,2-dihydropyridin-4-yl)benzo[d]thiazol-2-yl)urea]
2 to 16 (≈ 5.37 to 43 µM) | CCNC(=O)Nc1nc2cc(-c3cc(C)n(CCO)c(=O)c3)ccc2s1 [Example 32, 1-ethyl-3-(5-(1-(2-hydroxyethyl)-6-methyl-2-oxo-1,2-dihydropyridin-4-yl)benzo[d]thiazol-2-yl)urea]
0.25 to 1 (≈ 0.577 to 2.31 µM) | CCNC(=O)Nc1nc2cc(-c3cc(C)n(Cc4cccc(C)n4)c(=O)c3)ccc2s1 [Example 33, 1-ethyl-3-(5-(6-methyl-1-((6-methylpyridin-2-yl)methyl)-2-oxo-1,2-dihydropyridin-4-yl)benzo[d]thiazol-2-yl)urea]
0.25 to 1 (≈ 0.596 to 2.38 µM) | CCNC(=O)Nc1nc2cc(-c3cc(C)n(Cc4cccnc4)c(=O)c3)ccc2s1 [Example 34, 1-ethyl-3-(5-(6-methyl-2-oxo-1-(pyridin-3-ylmethyl)-1,2-dihydropyridin-4-yl)benzo[d]thiazol-2-yl)urea]
0.25 to 1 (≈ 0.596 to 2.38 µM) | CCNC(=O)Nc1nc2cc(-c3cc(C)n(Cc4ccccn4)c(=O)c3)ccc2s1 [Example 35, 1-ethyl-3-(5-(6-methyl-2-oxo-1-(pyridin-2-ylmethyl)-1,2-dihydropyridin-4-yl)benzo[d]thiazol-2-yl)urea]
2 to 16 (≈ 4.61 to 36.9 µM) | CCNC(=O)Nc1nc2cc(-c3cc(C)n(C(C)c4ccccn4)c(=O)c3)ccc2s1 (stereo not drawn) [Example 36, 1-ethyl-3-(5-(6-methyl-2-oxo-1-(1-(pyridin-2-yl)ethyl)-1,2-dihydropyridin-4-yl)benzo[d]thiazol-2-yl)urea]
2 to 16 (≈ 4.44 to 35.5 µM) | CCNC(=O)Nc1nc2cc(-c3ccc4c(=O)c(C(=O)OCC)cn(C)c4c3)ccc2s1 [Example 37, ethyl 7-(2-(3-ethylureido)benzo[d]thiazol-5-yl)-1-methyl-4-oxo-1,4-dihydroquinoline-3-carboxylate]
0.25 to 1 (≈ 0.669 to 2.68 µM) | CCNC(=O)Nc1nc2cc(-c3ccc(NC(C)=O)nc3)c(F)cc2s1 [Example 38, N-(5-(2-(3-ethylureido)-6-fluorobenzo[d]thiazol-5-yl)pyridin-2-yl)acetamide]
2 to 16 (≈ 5.11 to 40.9 µM) | CCNC(=O)Nc1nc2cc(-c3cnn(CC(=O)OCC)c3)c(F)cc2s1 [Example 39, ethyl 2-(4-(2-(3-ethylureido)-6-fluorobenzo[d]thiazol-5-yl)-1H-pyrazol-1-yl)acetate]
0.25 to 1 (≈ 0.72 to 2.88 µM) | CCNC(=O)Nc1nc2cc(-c3cc(C)oc(=O)c3)c(F)cc2s1 [Example 40, 1-ethyl-3-(6-fluoro-5-(6-methyl-2-oxo-2H-pyran-4-yl)benzo[d]thiazol-2-yl)urea]
2 to 16 (≈ 4.49 to 35.9 µM) | CCNC(=O)Nc1nc2cc(-c3cnc(N4CCN(CCO)CC4)nc3)c(F)cc2s1 [Example 41, 1-ethyl-3-(6-fluoro-5-(2-(4-(2-hydroxyethyl)piperazin-1-yl)pyrimidin-5-yl)benzo[d]thiazol-2-yl)urea]
2 to 16 | CCNC(=O)Nc1nc2cc(-c3cnc(N4CCNCC4)nc3)c(F)cc2s1.Cl [Example 42, 1-ethyl-3-(6-fluoro-5-(2-(piperazin-1-yl)pyrimidin-5-yl)benzo[d]thiazol-2-yl)urea hydrochloride salt]
0.25 to 1 (≈ 0.545 to 2.18 µM) | CCNC(=O)Nc1nc2cc(-c3cnc(N4CCC(C(=O)OC)CC4)nc3)c(F)cc2s1 [Example 43, methyl 1-(5-(2-(3-ethylureido)-6-fluorobenzo[d]thiazol-5-yl)pyrimidin-2-yl)piperidine-4-carboxylate]
< 0.25 | CCNC(=O)Nc1nc2cc(-c3cnc(N4CCC(C(=O)O)CC4)nc3)c(F)cc2s1 [Example 44, 1-(5-(2-(3-ethylureido)-6-fluorobenzo[d]thiazol-5-yl)pyrimidin-2-yl)piperidine-4-carboxylic acid]

Further lines, the compound ahead of its results:

Compound | MIC [µg/mL]
CCNC(=O)Nc1nc2cc(-c3cccnc3)ccc2s1 [Example 1, 1-Ethyl-3-(5-pyridin-3-yl-benzothiazol-2-yl)-urea] | 0.25 to 1 (≈ 0.838 to 3.35 µM)
CCNC(=O)Nc1nc2cc(-c3ccc(CC(=O)NC)nc3)ccc2s1 [Example 2, 2-{5-[2-(3-Ethyl-ureido)-benzothiazol-5-yl]-pyridin-2-yl}-N-methyl-acetamide] | 2 to 16 (≈ 5.41 to 43.3 µM)
CCNC(=O)Nc1nc2cc(-c3ccc4nncn4c3)ccc2s1 [Example 5, 1-(5-([1,2,4]triazolo[4,3-a]pyridin-6-yl)benzo[d]thiazol-2-yl)-3-ethylurea] | 2 to 16 (≈ 5.91 to 47.3 µM)
CCNC(=O)Nc1nc2cc(-c3ccc4nccn4c3)ccc2s1 [Example 6, 1-ethyl-3-(5-(imidazo[1,2-a]pyridin-6-yl)benzo[d]thiazol-2-yl)urea] | 2 to 16 (≈ 5.93 to 47.4 µM)
CCNC(=O)Nc1nc2cc(-c3ccc4nnnn4c3)ccc2s1 [Example 7, 1-ethyl-3-(5-(tetrazolo[1,5-a]pyridin-6-yl)benzo[d]thiazol-2-yl)urea] | 2 to 16 (≈ 5.89 to 47.1 µM)
CCNC(=O)Nc1nc2cc(-c3cnc4c(c3)OCCN4)ccc2s1 [Example 8, 1-(5-(3,4-dihydro-2H-pyrido[3,2-b][1,4]oxazin-7-yl)benzo[d]thiazol-2-yl)-3-ethylurea] | 2 to 16 (≈ 5.63 to 45 µM)
CCNC(=O)Nc1nc2cc(-c3ccc(CO)nc3)ccc2s1 [Example 9, 1-ethyl-3-(5-(6-(hydroxymethyl)pyridin-3-yl)benzo[d]thiazol-2-yl)urea] | 2 to 16 (≈ 6.09 to 48.7 µM)
CCNC(=O)Nc1nc2cc(-c3cnc(-n4ccccc4=O)cn3)ccc2s1 [Example 10, 1-ethyl-3-(5-(5-(2-oxopyridin-1(2H)-yl)pyrazin-2-yl)benzo[d]thiazol-2-yl)urea] | 2 to 16 (≈ 5.1 to 40.8 µM)
CCNC(=O)Nc1nc2cc(-c3cnc(CO)n3C)ccc2s1 [Example 11, 1-ethyl-3-(5-(2-(hydroxymethyl)-1-methyl-1H-imidazol-5-yl)benzo[d]thiazol-2-yl)urea] | 2 to 16 (≈ 6.03 to 48.3 µM)
CCNC(=O)Nc1nc2cc(-c3ccc(=O)n(CC(=O)OCC)c3)ccc2s1 [Example 12, ethyl 2-(5-(2-(3-ethylureido)benzo[d]thiazol-5-yl)-2-oxopyridin-1(2H)-yl)acetate] | 2 to 16 (≈ 4.99 to 40 µM)
CCNC(=O)Nc1nc2cc(-c3ccc(=O)n(CCOCC)c3)ccc2s1 [Example 13, 1-(5-(1-(2-ethoxyethyl)-6-oxo-1,6-dihydropyridin-3-yl)benzo[d]thiazol-2-yl)-3-ethylurea] | 2 to 16 (≈ 5.17 to 41.4 µM)
CCNC(=O)Nc1nc2cc(-c3cc(C)oc(=O)c3)ccc2s1 [Example 14, 1-ethyl-3-(5-(6-methyl-2-oxo-2H-pyran-4-yl)benzo[d]thiazol-2-yl)urea] | 2 to 16 (≈ 6.07 to 48.6 µM)
CCNC(=O)Nc1nc2cc(-c3ccc(C(=O)OC)nc3)ccc2s1 [Example 15, methyl 5-(2-(3-ethylureido)benzo[d]thiazol-5-yl)picolinate] | 2 to 16 (≈ 5.61 to 44.9 µM)
CCNC(=O)Nc1nc2cc(-c3cnn(CCN4CCOCC4)c3)ccc2s1 [Example 16, 1-ethyl-3-(5-(1-(2-morpholinoethyl)-1H-pyrazol-4-yl)benzo[d]thiazol-2-yl)urea] | 2 to 16 (≈ 4.99 to 39.9 µM)
CCNC(=O)Nc1nc2cc(-c3cc[nH]n3)ccc2s1 [Example 17, 1-(5-(1H-pyrazol-3-yl)benzo[d]thiazol-2-yl)-3-ethylurea] | 2 to 16 (≈ 6.96 to 55.7 µM)
CCNC(=O)Nc1nc2cc(-c3cnn(C)c3)ccc2s1 [Example 18, 1-ethyl-3-(5-(1-methyl-1H-pyrazol-4-yl)benzo[d]thiazol-2-yl)urea] | 2 to 16 (≈ 6.64 to 53.1 µM)
CCNC(=O)Nc1nc2cc(-c3cnc4c(c3)OCCN4C)ccc2s1 [Example 19, 1-ethyl-3-(5-(4-methyl-3,4-dihydro-2H-pyrido[3,2-b][1,4]oxazin-7-yl)benzo[d]thiazol-2-yl)urea] | 0.25 to 1 (≈ 0.677 to 2.71 µM)
CCNC(=O)Nc1nc2cc(-c3cncc4ccccc34)ccc2s1 [Example 20, 1-ethyl-3-(5-(isoquinolin-4-yl)benzo[d]thiazol-2-yl)urea] | 0.25 to 1 (≈ 0.718 to 2.87 µM)
